The values that follow come from PMC4526365 (Nature structural & molecular biology, 2015).

For assay [1], the target named is T1, human intelectin-1 (hIntL-1) (Homo sapiens, UniProt Q8WWA0). Kind of assay: competitive inhibition of hIntL-1 binding to β-Galf.
Target sequence in this assay (Q8WWA0 19-298): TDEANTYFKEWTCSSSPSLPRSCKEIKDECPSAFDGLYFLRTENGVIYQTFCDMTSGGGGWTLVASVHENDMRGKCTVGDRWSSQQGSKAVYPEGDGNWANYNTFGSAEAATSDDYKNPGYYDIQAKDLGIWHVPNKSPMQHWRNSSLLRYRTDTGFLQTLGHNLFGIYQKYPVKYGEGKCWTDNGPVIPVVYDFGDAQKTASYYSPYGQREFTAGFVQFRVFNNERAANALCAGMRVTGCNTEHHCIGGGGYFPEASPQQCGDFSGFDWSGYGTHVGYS
For assay [2], the target named is T1, human intelectin-1 (hIntL-1). Kind of assay: ELISA-like assay on immobilized biotinylated carbohydrate. Format: binding.
Target sequence in this assay (Q8WWA0 whole entry): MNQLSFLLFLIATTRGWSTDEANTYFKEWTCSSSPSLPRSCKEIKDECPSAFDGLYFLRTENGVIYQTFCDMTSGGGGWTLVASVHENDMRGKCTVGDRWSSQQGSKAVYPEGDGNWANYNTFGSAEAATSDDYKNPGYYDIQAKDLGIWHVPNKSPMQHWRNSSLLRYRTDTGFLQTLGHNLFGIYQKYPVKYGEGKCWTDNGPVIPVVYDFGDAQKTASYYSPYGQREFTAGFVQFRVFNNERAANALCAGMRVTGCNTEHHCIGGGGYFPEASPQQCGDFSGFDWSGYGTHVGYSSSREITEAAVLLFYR

In the case of `O=P(O)(O)OCC(O)CO` (centres unmarked) [glycerol-1-phosphate], in assay [1], the “competitive inhibition of hIntL-1 binding to β-Galf” value was “glycerol and glycerol-1-phosphate— competitively inhibit the lectin from binding to β-Galf”.

With “β-D-Galf (biotinylated, immobilized) [β-Galf]”, in assay [2], binding was put at a Kd of 85 ± 14 nM.
